How the values were obtained:
Eupatorium adenophorum = experiment: Spraying herbicide aqueous solution on Eupatorium adenophorum plants (contact killing); format: in vivo
Procedure: (1) 25 mL of the methyl 4-hydroxyphenylacetate herbicide aqueous solution prepared in Example 1 was taken and sprayed evenly on the surface of Eupatorium adenophorum plants.
When not sprayed, the Eupatorium adenophorum plant had one pair of top leaves, one head inflorescence, one pair of tender leaves under the top leaves, and three pairs of mature leaves. The plant was healthy and vigorous, with a height of 40-50 cm. […] The uppermost one pair of mature leaves among the three pairs of mature leaves withered in a large area. The lower two pairs of mature leaves began to wither from the edge inwards, and the axillary buds also died. These deaths were irreversible.
(2) 25 mL of the methyl 4-hydroxyphenylacetate herbicide aqueous solution prepared in Example 3 was taken and sprayed evenly on the surface of Eupatorium adenophorum plants.
When not sprayed, the Eupatorium adenophorum plant had one pair of top leaves, one head inflorescence, one pair of tender leaves under the inflorescence, and four pairs of mature leaves. The plant was healthy and vigorous, with a height of 40-50 cm.
(5) 25 mL of the methyl 4-hydroxyphenylacetate herbicide aqueous solutions prepared in Comparative Examples 1 to 2 were taken and sprayed evenly on the surface of Eupatorium adenophorum plants.

[1] = Dissolution of methyl 4-hydroxyphenylacetate in 15% ethanol solution; format: physicochemical; conditions: 1.82787 g in 50 mL of 15% ethanol solution
Procedure: The methyl 4-hydroxyphenylacetate was purchased on the market. 1.82787 g of methyl 4-hydroxyphenylacetate was weighed, and added with 50 mL of a 15% absolute ethanol solution for dissolution.

solubility in 15% absolute ethanol solution [1]: could not be sufficiently dissolved
Compound: COC(=O)Cc1ccc(O)cc1 [methyl 4-hydroxyphenylacetate, Methyl 4-hydroxyphenylacetate]
effect on Eupatorium adenophorum at use concentration greater than 150 mmol/L (Eupatorium adenophorum; sprayed once): contact killing effect | time after spraying until old leaves / plant are basically withered (Eupatorium adenophorum; use concentration greater than 150 mmol/L): 4 to 5 days

— US20230345936A1, “NOVEL ENVIRONMENT-FRIENDLY HERBICIDE” (KUNMING INSTITUTE OF BOTANY, CHINESE ACADEMY OF SCIENCES, priority 2022, published 2023)
